US10100088B2, “Glycopeptide derivatives for the preservation and protection of biological materials and microorganisms” (TFCHEM, priority 2014, dated 2018)
Read-outs that look alike come from different tables or passages of the source.

Tested on: neonatal skin fibroblasts (CCD-27SK, ATCC CRL-1475)
Conditions: for Percentage of viability: 5 mg/mL in serum free medium
Method: II-1. Effect of Glycopeptide 17 on the Preservation/Protection of Neonatal Skin Fibroblasts Under Starvation Conditions. Evaluation by Trypan Blue Exclusion Method.
• The neonatal skin fibroblasts (Cell line: CCD-27SK, ATCC number CRL-1475) were grown with DMEM medium supplemented with Fetal Bovine Serum 10% final, antibiotics (Penicillin/Streptomycin) 1% final and Amphotericin B 0.1% final. • Fibroblasts were grown in 75 cm^2 culture flask to 80% confluence, in 37° C. and 10% CO2 incubator. The medium was changed every two days by 37° C. preheated fresh medium. Starvation Medium • This medium was composed of 45% subculturing medium without Fetal Bovine Serum mixed with 55% of Phosphate Buffer Saline 1× containing EDTA (final concentration of 0.45 mM). This was referred to as serum-free medium. Product Preparation • Compound 17 (MM=603.4 g/mol) was diluted in starvation medium to 5 mg/ml final and pH was adjusted at 7.4 by addition of NaOH 1N. General Experimental Procedure Assays on 96 Well Plates • Fibroblast cells were concentrated to 2.10^5 cells/ml and 100 μl of cell suspension was added in wells of a 96-well plate and incubated in 37° C. and 10% CO2 incubator for 4 hours. • After cell adhesion the medium was changed and plates were incubated (37° C.-10% CO2) to perform the assay as follow: • One plate for each sampling times: D0, D3, D4, D5, D6, D7, D10, D12 days • Three wells for each condition (triplicate count) added with 120 μl of culture medium (surviving control), starvation medium (serum-free control) or compound 17 solution at 5 mg/ml. […] So, only the dead cells are blue at microscopic observation. • For sampling, 110 μl of Trypan Blue (SIGMA T8154) was added to 110 μl of trypsinated cell suspension of matching well for counting. • […] of the trypan blue/cell mixture are dropped to a hemacytometer. Cells are counting by using a Neubauer-counting chamber. The unstained (viable) and stained (nonviable) cells are counted separately on 9 areas of 1 mm^2 forming a large square of 9 mm^2 and added to obtain the total number of cells per sample. An average of three counts was used to calculate the viability percentage as: [Number of viable cells/total number of cells]*100 • The cell viability percentages from cultures under starvation conditions were compared with control culture for several days after their addition (D0, D3, D4, D5, D6, D7, D10, D12).

C[C@H](NC(=O)[C@H](C)NC(=O)[C@@H](N)CCCCNCC(F)(F)C1(O)O[C@H](CO)[C@H](O)[C@H](O)[C@H]1O)C(=O)O.Cl.Cl (some centres unmarked) [Compound 17]
Percentage of viability (D 0): 96.69 ± 1.85% | Percentage of viability (D 0, listed as compound 17): 97% | Percentage of viability (D 3): 91.03 ± 1.88% | Percentage of viability (D 4): 88.98 ± 2.48% | Percentage of viability (D 5): 86.65 ± 4.26% | Percentage of viability (D 6): 85.53 ± 1.57% | Percentage of viability (D 7): 83.20 ± 3.72% | Percentage of viability (D 10): 80.62 ± 3.72% | Percentage of viability (D 12): 77.03 ± 2.02% | Percentage of viability (D 12, listed as compound 17): 77% | preservative/protective effect on skin fibroblasts (in words) (starvation medium, 5 mg/ml, 12 days): significant preservative/protective effect
